Data set [1] is described as follows: Hepatocyte stability assay. It is filed as in vitro ADME. The settings on record: cryopreserved human hepatocytes (10 donor pool, suspension), scaled hepatic clearance, read-out: HHep Clearance. On the procedure: Metabolic stability of compounds are assessed using a hepatocyte stability assay. Cryopreserved human hepatocytes from a 10 donor pool are quickly thawed at 37° C., suspended in prewarmed In VitroGRO™ HT Medium, and then centrifuged at 100×g at room temperature for 10 min. The supernatants are discarded, and cells are resuspended in 5 mL Dulbecco's Modified Eagle Medium (DMEM) medium. Cell viability in suspension is counted on a Hepatometer® Vision (Lonza, N.C.), and viable cells are then adjusted to […] in DMEM. Compounds are first diluted to 2 μM with DMEM medium, and then aliquots of 125 μL of drug-containing medium are transferred to 96-well non-coated plates. Incubation is initiated by the addition of 125 μL of hepatocyte suspension to yield a total incubation volume of 250 μL. Final concentration of each compound is 1 μM, and final cell density is 0.5×10^6 cells/mL. Incubations are conducted in a humidified incubator at 37° C. Aliquots of 50 μL incubation medium are taken out at different time intervals (0, 60, 120 and 180 min), and immediately mixed with 100 μL of ice-cold acetonitrile containing 50 nM propranolol (internal standard). Samples are then centrifuged at 10,000×g for 10 min, and 80 μL of supernatant is taken out and diluted with 160 μL of water prior to LC/MS-MS analysis.
Human hepatocyte stability was assessed for exemplary compounds of Formula (I) according to the above procedures.

The test system of data set [2] is phosphorylation of SLP-76 (S376) by HPK-1 in human Jurkat cells. The data set is described as follows: pSLP76 assay (sandwich ELISA, anti-CD3 stimulated Jurkat cells). It is filed as cell-based. The settings on record: Homo sapiens; Jurkat cells, anti-CD3 stimulation; read-out: pSLP76 IC50. Here is the method:
Phospho-SLP76 (S376) is detected by sandwich ELISA using an anti-pSLP76(S376) capture antibody and a biotinylated anti-SLP76 detection antibody.
Incubate Jurkat cells with varying concentrations of test compounds for 30 minutes in a humidified incubator at 37° C. and 5% CO2. Add anti-CD3 DynaBeads at a 4:1 bead:cell ratio. Stimulate cells in a humidified incubator at 37° C. and 5% CO2 for 10 minutes. Add cold lysis buffer and incubate on a shaker at 4° C. for 30 minutes. Transfer cell lysates to a pre-blocked ELISA plate coated with capture antibody. Incubate at room temperature shaking for 2 hours. Wash ELISA plate 5× with wash buffer and add 25 μl of biotinylated detection antibody at a final concentration of 0.5 μg/ml. Incubate at room temperature shaking for 1 hour. Wash ELISA plate 5× with wash buffer and add 25 μl of streptavidin enzyme conjugate at a final dilution of 1:8000. Incubate at room temperature shaking for 20 minutes. Wash ELISA plate 5× with wash buffer and add 25 μl of TMB substrate solution. Incubate at room temperature in the dark shaking for 20 minutes. Add 25 μl of STOP solution and read on SoftMax Pro for absorbance at 450 nm.
Exemplary compounds of Formula (I) were tested in pSLP76 assays.

The target of data set [3] is HPK full length, T165E S171E (Homo sapiens (Human), UniProt Q92918, S171E/T165E). In words: HPK1-FL HTRF enzymatic assay ("HTRF"). The settings on record: ATP 1 mM, read-out: HPK1 Ki. It is filed as biochemical. Put shortly:
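Full-length HPK1 (T165E/S171E) was preincubated 30 min with compound, then reacted 60 min with biotin-SLP-76 and 1 mM ATP. Phospho-SLP-76 was detected by HTRF (Eu-anti-pSLP76 antibody, SA-XL665) after a further 60 min.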

Data set [4] has as its system primary human pan T cells. The data set is described as follows: Human T-cell IL2 induction assay. It is filed as cell-based. Here is the method:
Assay Principle: Anti-CD3 and anti-CD28 activates TCR signaling in primary human pan T cells leading to IL-2 promoter induction. Secreted IL-2 in cell culture supernatant is detected by electrochemiluminescence using a capture antibody against IL-2 and an anti-IL-2 antibody labeled with SULFO-tag. Also see www.mesoscale.com for additional electrochemiluminescence technology information.
Assay Procedure: Incubate primary human pan T cells with varying concentrations of test compounds for 30 minutes in a humidified incubator at 37° C. and 5% CO2. Transfer cells to a plate pre-coated with a fixed concentration of anti-human CD3 (determined separately for each donor lot) and add soluble anti-human CD28 (final concentration=1 μg/ml). Stimulate cells in a humidified incubator at 37° C. and 5% CO2 for 4 hours. Transfer 25 μl of supernatant to a MSD single spot plate pre-coated with an anti-human IL-2 antibody. Incubate MSD plate overnight at 4° C. with gentle shaking. Wash MSD plate 4× with wash buffer. Add SULFO-tagged detection antibody at a 1:50 dilution and incubate at room temperature shaking for 2 hours. Wash MSD plate 4× with wash buffer and add 150 μl 2×MSD read buffer. Read on an MSD instrument. Normalize data to stimulated/untreated controls to calculate % activity at each concentration of compound.
Instrumentation: • Biomek FX for liquid handling (Beckman Coulter) • MSD SECTOR S 600 (Meso Scale Discovery)
Exemplary compounds of Formula (I) were tested in the human T-cell IL-2 induction assays.

pIC50, pKi: −log10 of the molar value. Some results are limits rather than exact numbers.

Chain of HPK full length, T165E S171E (Q92918 whole entry T165E/S171E, looked up): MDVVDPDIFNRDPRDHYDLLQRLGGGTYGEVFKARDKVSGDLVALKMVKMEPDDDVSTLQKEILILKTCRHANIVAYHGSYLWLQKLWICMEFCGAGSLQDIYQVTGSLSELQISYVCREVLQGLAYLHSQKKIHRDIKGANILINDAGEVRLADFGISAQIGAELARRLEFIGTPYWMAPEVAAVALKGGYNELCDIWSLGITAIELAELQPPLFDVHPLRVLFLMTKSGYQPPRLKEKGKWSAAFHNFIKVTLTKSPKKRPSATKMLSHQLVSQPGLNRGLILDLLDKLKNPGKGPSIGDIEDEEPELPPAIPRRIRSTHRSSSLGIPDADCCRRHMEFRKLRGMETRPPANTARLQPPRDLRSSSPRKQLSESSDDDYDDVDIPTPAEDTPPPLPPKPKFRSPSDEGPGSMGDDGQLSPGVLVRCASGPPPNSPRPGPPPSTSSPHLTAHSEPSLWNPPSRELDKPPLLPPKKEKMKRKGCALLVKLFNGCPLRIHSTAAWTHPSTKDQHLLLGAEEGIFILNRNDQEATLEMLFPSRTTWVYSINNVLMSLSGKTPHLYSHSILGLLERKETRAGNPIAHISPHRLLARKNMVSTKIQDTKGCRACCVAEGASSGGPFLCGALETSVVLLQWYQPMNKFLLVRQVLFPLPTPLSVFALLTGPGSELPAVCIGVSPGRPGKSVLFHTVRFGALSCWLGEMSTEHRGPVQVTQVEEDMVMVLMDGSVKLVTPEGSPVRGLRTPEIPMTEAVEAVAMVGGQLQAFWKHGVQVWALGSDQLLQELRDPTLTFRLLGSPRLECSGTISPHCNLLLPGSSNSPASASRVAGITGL

For the compound `CCc1c(-c2cc3cc(NC(=O)O[C@@H]4COC[C@H]4C)ncc3c(N)c2F)cnc2c1NCCO2.Cl` (single isomer, unassigned) [Compound 555b, hydrochloride], the CLhep predicted at 1 μM in data set [1] is 13 mL/min/kg. In addition, the pIC50 in data set [2] is 7.62. For the same compound, the negative logarithm of the Ki (pKi) in data set [3] is greater than 10.89.
As to `Cc1c(-c2cc3cc(NC(=O)O[C@H]4CC[C@@H]4C#N)ncc3c(N)c2F)cnc2c1NCCO2` [Compound 535a, (1S,2R)-2-Cyanocyclobutyl (8-amino-7-fluoro-6-(8-methyl-2,3-dihydro-1H-pyrido[2,3-b][1,4]oxazin-7-yl)isoquinolin-3-yl)carbamate], the pKi in data set [3] is greater than 10.89. The “% IL-2 increase relative to untreated cells” value in data set [4] (assayed concentration 2.778 μM) is 831%.
On the same counts, the results for `Cc1c(-c2cc3cc(NC(=O)O[C@H]4C[C@H](N5CCOCC5)C4)ncc3c(N)c2F)cnc2c1NCCO2` [Compound 550a, (1r,3r)-3-Morpholinocyclobutyl (8-amino-7-fluoro-6-(8-methyl-2,3-dihydro-1H-pyrido[2,3-b][1,4]oxazin-7-yl)isoquinolin-3-yl)carbamate] are greater than 10.89 and 1059%.
On the same counts, the results for `Cc1c(-c2cc3cc(NC(=O)NC4CCOCC4)ncc3c(N)c2F)cnc2c1NCCO2` [Compound 701, 1-(8-Amino-7-fluoro-6-(8-methyl-2,3-dihydro-1H-pyrido[2,3-b][1,4]oxazin-7-yl)isoquinolin-3-yl)-3-(tetrahydro-2H-pyran-4-yl)urea] are greater than 10.89 and 4163%.
`Cc1c(-c2cc3cc(NC(=O)N[C@H]4CCC[C@H]4F)ncc3c(N)c2F)cnc2c1NCCO2` [Compound 727b, 1-[8-Amino-7-fluoro-6-(8-methyl-2,3-dihydro-1H-pyrido[2,3-b][1,4]oxazin-7-yl)-3-isoquinolyl]-3-[(1S,2R)-2-fluorocyclopentyl]urea]: the pKi in data set [3] is greater than 10.89. For the same compound, the “% IL-2 increase relative to untreated cells” value in data set [4] (assayed concentration 0.926 μM) was found to be 938%.

These data come from patent US11612606B2, “8-aminoisoquinoline compounds and uses thereof” (priority 2018, dated 2023).
